pIC50: −log10 of the molar value.
Molecular target: Human TRPA1 (Homo sapiens, UniProt O75762)
Test: Alternative TRPA1 Ca2+ fluorometry assay (hTRPA1/TREx-HEK293 cells, Fluo-4, FDSS 6000)
Format: cell-based
Set-up: expressed in transfected cells
Conditions: Fluo-4-AM, agonist 6,11-dihydro-5H-dibenzo[b,e]azepine-10-carboxylic acid methyl ester 25 nM, procedure used for Examples 184, 190 to 192, 194 to 316
How it was run: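 Tetracycline-induced (50 ng/ml, 24 h) hTRPA1/TREx-HEK293 cells were loaded with Fluo-4-AM and probenecid. Compound (1% DMSO final) was added after a 12 s baseline and the Ca2+ signal followed for 14 min, then 25 nM TRPA1 agonist dibenzazepine carboxylic acid methyl ester was applied. Signal is Em540 (ex 488 nm) relative to the first baseline reading.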

Chain of Human TRPA1 (O75762 whole entry): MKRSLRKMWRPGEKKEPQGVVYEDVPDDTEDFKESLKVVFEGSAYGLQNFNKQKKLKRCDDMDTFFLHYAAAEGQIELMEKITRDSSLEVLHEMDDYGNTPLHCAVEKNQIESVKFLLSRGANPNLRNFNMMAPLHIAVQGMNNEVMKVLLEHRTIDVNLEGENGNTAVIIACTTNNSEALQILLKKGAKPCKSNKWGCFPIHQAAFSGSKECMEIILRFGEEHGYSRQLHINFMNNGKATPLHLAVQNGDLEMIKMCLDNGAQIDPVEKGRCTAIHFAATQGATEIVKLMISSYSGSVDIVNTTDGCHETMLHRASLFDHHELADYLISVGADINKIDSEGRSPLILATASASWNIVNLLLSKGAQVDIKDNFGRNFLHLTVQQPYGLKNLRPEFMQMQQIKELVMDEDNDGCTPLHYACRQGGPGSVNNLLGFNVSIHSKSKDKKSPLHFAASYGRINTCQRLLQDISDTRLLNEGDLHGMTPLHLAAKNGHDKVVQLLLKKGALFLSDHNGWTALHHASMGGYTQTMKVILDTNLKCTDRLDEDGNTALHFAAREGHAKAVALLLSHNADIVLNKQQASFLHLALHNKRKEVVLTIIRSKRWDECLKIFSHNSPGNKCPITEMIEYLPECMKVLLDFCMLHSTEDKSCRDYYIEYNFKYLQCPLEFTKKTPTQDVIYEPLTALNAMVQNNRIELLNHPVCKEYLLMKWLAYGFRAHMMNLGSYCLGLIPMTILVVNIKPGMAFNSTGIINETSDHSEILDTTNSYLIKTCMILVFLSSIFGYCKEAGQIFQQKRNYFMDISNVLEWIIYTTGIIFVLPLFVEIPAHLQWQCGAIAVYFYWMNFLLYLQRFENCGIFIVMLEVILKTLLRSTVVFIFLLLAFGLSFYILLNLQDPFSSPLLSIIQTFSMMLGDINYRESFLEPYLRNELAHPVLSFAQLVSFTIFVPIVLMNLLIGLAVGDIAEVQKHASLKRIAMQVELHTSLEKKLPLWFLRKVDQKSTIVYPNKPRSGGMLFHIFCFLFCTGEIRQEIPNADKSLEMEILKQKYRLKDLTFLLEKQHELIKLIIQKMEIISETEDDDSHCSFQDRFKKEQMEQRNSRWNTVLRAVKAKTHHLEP

Row | pIC50 | Compound
1 | 5.42 | O=C(NCc1cc(-c2cccc(C(F)(F)F)c2)nc(N2CCN(c3ccccc3F)CC2)n1)[C@@H]1CCCN1S(=O)(=O)c1ccc(F)cc1 [Example 243, 1-(4-Fluoro-benzenesulfonyl)-pyrrolidine-2S-carboxylic acid [2-[4-(2-fluoro-phenyl)-piperazin-1-yl]-6-(3-trifluoromethyl-phenyl)-pyrimidin-4-ylmethyl]-amide]
2 | < 5.00 | O=C(NCc1cc(-c2ccc(F)c(Cl)c2)nc(N2CCN(c3ccccc3F)CC2)n1)[C@@H]1CCCN1S(=O)(=O)c1ccc(F)cc1 [Example 244, 1-(4-Fluoro-benzenesulfonyl)-pyrrolidine-2-carboxylic acid {6-(3-chloro-4-fluoro-phenyl)-2-[4-(2-fluoro-phenyl)-piperazin-1-yl]-pyrimidin-4-ylmethyl}-amide]
3 | 5.61 | O=C(NCc1cc(-c2ccccc2F)nc(N2CCN(c3ccccc3F)CC2)n1)[C@@H]1CCCN1S(=O)(=O)c1ccc(F)cc1 [Example 245, 1-(4-Fluoro-benzenesulfonyl)-pyrrolidine-2S-carboxylic acid {6-(2-fluoro-phenyl)-2-[4-(2-fluoro-phenyl)-piperazin-1-yl]-pyrimidin-4-ylmethyl}-amide]
4 | 5.70 | O=C(NCc1cc(-c2cccc(F)c2)nc(N2CCN(c3ccccc3F)CC2)n1)[C@@H]1CCCN1S(=O)(=O)c1ccc(F)cc1 [Example 246, 1-(4-Fluoro-benzenesulfonyl)-pyrrolidine-2S-carboxylic acid {6-(3-fluoro-phenyl)-2-[4-(2-fluoro-phenyl)-piperazin-1-yl]-pyrimidin-4-ylmethyl}-amide]
5 | ~5.84 | Cc1ccccc1-c1cc(CNC(=O)[C@@H]2CCCN2S(=O)(=O)c2ccc(F)cc2)nc(N2CCN(c3ccccc3F)CC2)n1 [Example 247, 1-(4-Fluoro-benzenesulfonyl)-pyrrolidine-2S-carboxylic acid {2-[4-(2-fluoro-phenyl)-piperazin-1-yl]-6-o-tolyl-pyrimidin-4-ylmethyl}-amide]
6 | ~6.17 | O=C(NCc1cc(-c2ccc(Cl)c(Cl)c2)nc(N2CCN(c3ccccc3F)CC2)n1)[C@@H]1CCCN1S(=O)(=O)c1ccc(F)cc1 [Example 248, 1-(4-Fluoro-benzenesulfonyl)-pyrrolidine-2S-carboxylic acid {6-(3,4-dichloro-phenyl)-2-[4-(2-fluoro-phenyl)-piperazin-1-yl]-pyrimidin-4-ylmethyl}-amide]
7 | 5.80 | O=C(NCc1cc(-c2cc(F)cc(F)c2)nc(N2CCN(c3ccccc3F)CC2)n1)[C@@H]1CCCN1S(=O)(=O)c1ccc(F)cc1 [Example 249, 1-(4-Fluoro-benzenesulfonyl)-pyrrolidine-2S-carboxylic acid {6-(3,5-difluoro-phenyl)-2-[4-(2-fluoro-phenyl)-piperazin-1-yl]-pyrimidin-4-ylmethyl}-amide]
8 | 6.07 | O=C(NCc1cc(-c2ccc(Cl)cc2Cl)nc(N2CCN(c3ccccc3F)CC2)n1)[C@@H]1CCCN1S(=O)(=O)c1ccc(F)cc1 [Example 250, 1-(4-Fluoro-benzenesulfonyl)-pyrrolidine-2S-carboxylic acid {6-(2,4-dichloro-phenyl)-2-[4-(2-fluoro-phenyl)-piperazin-1-yl]-pyrimidin-4-ylmethyl}-amide]
9 | 5.60 | O=C(NCc1cc(-c2ccccc2)nc(N2CCN(c3ccccc3F)CC2)n1)[C@@H]1CCCN1S(=O)(=O)c1ccc(F)cc1 [Example 251, 1-(4-Fluoro-benzenesulfonyl)-pyrrolidine-2S-carboxylic acid {2-[4-(2-fluoro-phenyl)-piperazin-1-yl]-6-phenyl-pyrimidin-4-ylmethyl}-amide]
10 | < 5.00 | O=C(NCc1cc(-c2ccc(C(F)(F)F)cc2)nc(N2CCN(c3ccccc3F)CC2)n1)[C@@H]1CCCN1S(=O)(=O)c1ccc(F)cc1Cl [Example 252, 1-(2-Chloro-4-fluoro-benzenesulfonyl)-pyrrolidine-2S-carboxylic acid [2-[4-(2-fluoro-phenyl)-piperazin-1-yl]-6-(4-trifluoromethyl-phenyl)-pyrimidin-4-ylmethyl]-amide]
11 | < 5.00 | COc1cccc(S(=O)(=O)N2CCC[C@H]2C(=O)NCc2cc(-c3ccc(C(F)(F)F)cc3)nc(N3CCN(c4ccccc4F)CC3)n2)c1 [Example 253, 1-(3-Methoxy-benzenesulfonyl)-pyrrolidine-2S-carboxylic acid [2-[4-(2-fluoro-phenyl)-piperazin-1-yl]-6-(4-trifluoromethyl-phenyl)-pyrimidin-4-ylmethyl]-amide]
12 | < 5.00 | O=C(NCc1cc(-c2ccc(C(F)(F)F)cc2)nc(N2CCN(c3ccccc3F)CC2)n1)[C@@H]1CCCN1S(=O)(=O)c1cccc(Cl)c1 [Example 254, 1-(3-Chloro-benzenesulfonyl)-pyrrolidine-2S-carboxylic acid [2-[4-(2-fluoro-phenyl)-piperazin-1-yl]-6-(4-trifluoromethyl-phenyl)-pyrimidin-4-ylmethyl]-amide]
13 | < 5.00 | COc1ccc(S(=O)(=O)N2CCC[C@H]2C(=O)NCc2cc(-c3ccc(C(F)(F)F)cc3)nc(N3CCN(c4ccccc4F)CC3)n2)cc1 [Example 255, 1-(4-Methoxy-benzenesulfonyl)-pyrrolidine-2S-carboxylic acid [2-[4-(2-fluoro-phenyl)-piperazin-1-yl]-6-(4-trifluoromethyl-phenyl)-pyrimidin-4-ylmethyl]-amide]
14 | < 5.00 | Cc1ccc(F)cc1S(=O)(=O)N1CCC[C@H]1C(=O)NCc1cc(-c2ccc(C(F)(F)F)cc2)nc(N2CCN(c3ccccc3F)CC2)n1 [Example 256, 1-(5-Fluoro-2-methyl-benzenesulfonyl)-pyrrolidine-2-carboxylic acid [2-[4-(2-fluoro-phenyl)-piperazin-1-yl]-6-(4-trifluoromethyl-phenyl)-pyrimidin-4-ylmethyl]-amide]
15 | < 5.00 | O=C(NCc1cc(-c2ccc(C(F)(F)F)cc2)nc(N2CCN(c3ccccc3F)CC2)n1)[C@@H]1CCCN1S(=O)(=O)c1cc(Cl)ccc1F [Example 257, 1-(5-Chloro-2-fluoro-benzenesulfonyl)-pyrrolidine-2S-carboxylic acid [2-[4-(2-fluoro-phenyl)-piperazin-1-yl]-6-(4-trifluoromethyl-phenyl)-pyrimidin-4-ylmethyl]-amide]
16 | 6.49 | O=C(NCc1cc(-c2ccc(C(F)(F)F)cc2)nc(N2CCN(c3ccccc3F)CC2)n1)[C@@H]1CCCN1S(=O)(=O)c1ccc(F)c(F)c1 [Example 258, 1-(3,4-Difluoro-benzenesulfonyl)-pyrrolidine-2S-carboxylic acid [2-[4-(2-fluoro-phenyl)-piperazin-1-yl]-6-(4-trifluoromethyl-phenyl)-pyrimidin-4-ylmethyl]-amide]
17 | 5.45 | O=C(NCc1cc(-c2ccc(C(F)(F)F)cc2)nc(N2CCN(c3ccccc3F)CC2)n1)[C@@H]1CCCN1S(=O)(=O)c1ccc(F)c(Cl)c1 [Example 259, 1-(3-Chloro-4-fluoro-benzenesulfonyl)-pyrrolidine-2S-carboxylic acid [2-[4-(2-fluoro-phenyl)-piperazin-1-yl]-6-(4-trifluoromethyl-phenyl)-pyrimidin-4-ylmethyl]-amide]
18 | < 5.00 | CC(C)c1ccc(S(=O)(=O)N2CCC[C@H]2C(=O)NCc2cc(-c3ccc(C(F)(F)F)cc3)nc(N3CCN(c4ccccc4F)CC3)n2)cc1 [Example 260, 1-(4-Isopropyl-benzenesulfonyl)-pyrrolidine-2S-carboxylic acid [2-[4-(2-fluoro-phenyl)-piperazin-1-yl]-6-(4-trifluoromethyl-phenyl)-pyrimidin-4-ylmethyl]-amide]
19 | 5.57 | O=C(NCc1cc(-c2ccc(C(F)(F)F)cc2)nc(N2CCN(c3ccccc3F)CC2)n1)[C@@H]1CCCN1S(=O)(=O)c1ccc(F)c(F)c1F [Example 261, 1-(2,3,4-Trifluoro-benzenesulfonyl)-pyrrolidine-2S-carboxylic acid [2-[4-(2-fluoro-phenyl)-piperazin-1-yl]-6-(4-trifluoromethyl-phenyl)-pyrimidin-4-ylmethyl]-amide]
20 | < 5.00 | Cc1c(Cl)cccc1S(=O)(=O)N1CCC[C@H]1C(=O)NCc1cc(-c2ccc(C(F)(F)F)cc2)nc(N2CCN(c3ccccc3F)CC2)n1 [Example 262, 1-(3-Chloro-2-methyl-benzenesulfonyl)-pyrrolidine-2S-carboxylic acid [2-[4-(2-fluoro-phenyl)-piperazin-1-yl]-6-(4-trifluoromethyl-phenyl)-pyrimidin-4-ylmethyl]-amide]
21 | 6.72 | O=C(NCc1cc(-c2ccc(C(F)(F)F)cc2)nc(N2CCN(c3ccccc3F)CC2)n1)[C@@H]1CCCN1S(=O)(=O)c1ccc(Cl)s1 [Example 263, 1-(5-Chloro-thiophene-2-sulfonyl)-pyrrolidine-2S-carboxylic acid [2-[4-(2-fluoro-phenyl)-piperazin-1-yl]-6-(4-trifluoromethyl-phenyl)-pyrimidin-4-ylmethyl]-amide]
22 | ~6.03 | O=C(NCc1cc(-c2ccc(C(F)(F)F)cc2)nc(N2CCN(c3ccccc3F)CC2)n1)[C@@H]1CCCN1S(=O)(=O)c1cccs1 [Example 264, 1-(Thiophene-2-sulfonyl)-pyrrolidine-2S-carboxylic acid [2-[4-(2-fluoro-phenyl)-piperazin-1-yl]-6-(4-trifluoromethyl-phenyl)-pyrimidin-4-ylmethyl]-amide]
23 | < 5.00 | CCCc1ccc(S(=O)(=O)N2CCC[C@H]2C(=O)NCc2cc(-c3ccc(C(F)(F)F)cc3)nc(N3CCN(c4ccccc4F)CC3)n2)cc1 [Example 265, 1-(4-Propyl-benzenesulfonyl)-pyrrolidine-2S-carboxylic acid [2-[4-(2-fluoro-phenyl)-piperazin-1-yl]-6-(4-trifluoromethyl-phenyl)-pyrimidin-4-ylmethyl]-amide]
